The results in this text go back to article PMC11277476, “Synthesis and Biological Evaluation of Novel 2-Aroyl Benzofuran-Based Hydroxamic Acids as Antimicrotubule Agents” (International Journal of Molecular Sciences, 2024).

The subject of data set [1] is HeLa cells. The data set can be described thus: Annexin V-PI flow cytometric analysis of apoptosis, HeLa. It is filed as cell-based, human. The note with it: 48 h, lower dose tested 25 nM. The method, then:
(§1) The quantification of apoptosis induced by the test compounds was carried out with flow cytometric analysis using the Annexin-V Fluos kit (Roche Diagnostics, Milan, Italy) following the manufacturer’s instructions. Cancer cells treated with the test compounds for the indicated time points and concentrations were then labeled with annexin V/FITC and PI and analyzed with BD FACS Celesta^TM Flow Cytometer (BD Bioscience, Franklin Lakes, NJ, USA) using the FL1 and FL3 channel, respectively, and FlowJo_v10.7.1 software.

In data set [2] the test system is HT-29 cells. The data set can be described thus: Cell cycle analysis (PI, flow cytometry). The note with it: 250 nM for 24 h (figure legend). It is filed as cell-based, human. As for the experimental part: HT29 cells were treated with the indicated compounds for 24 h and then harvested and fixed in 70% ice-cold ethanol for 24 h. The cells were next treated with a 0.1% v/v solution of Triton X-100 in phosphate buffered saline (PBS) containing 10 μg/mL RNAse A and 20 μg/mL PI. The cells were incubated at room temperature for 30 min and then analyzed on a BD FACS Celesta^TM Flow Cytometer (BD Bioscience, Franklin Lakes, NJ, USA) in the FL3 channel. DNA histograms were analyzed using FlowJo_v10.7.1 software (BD Bioscience, Franklin Lakes, NJ, USA).
On the technique in general: A flow cytometer gives signals particle by particle.

Data set [3] has as its system HT-29 cells. The data set can be described thus: Annexin V-PI flow cytometric analysis of apoptosis, HT-29. It counts as cell-based, human. The note with it: 96 h. As for the experimental part: as §1
Data set [4] concerns MCF-7 cells. The data set can be described thus: In vitro growth inhibition (resazurin, 72 h), MCF-7. It is filed as cell-based. The note with it: Homo sapiens, MCF7, mean ± SE. On the technique in general: Alamar Blue is a resazurin reagent that responds to reducing activity.
Data set [5] has as its system human peripheral blood mononuclear cells (PBMC), not stimulated with PHA. Kind of data set: Cytotoxicity in resting PBMC (resazurin, 72 h). It is filed as cell-based. The note with it: mean ± SEM. The text has this: (§2) Peripheral blood mononuclear cells (PBMC), obtained from human peripheral blood (leucocyte-rich plasma-buffy coats) of healthy volunteers using a Lymphoprep^TM (Serumwerk Bernburg AG) gradient, were used for the evaluation of the cytotoxic potential of compounds in normal human cells.
(§3) After extensive washing with saline solution (Hank’s Buffer Saline Solution, BioConcept, Allschwil, Switzerland), quiescent PBMCs were resuspended (1.0 × 10^6 cells/mL) in RPMI-1640 medium supplemented with 10% FBS. To evaluate cytotoxicity in proliferating PBMCs cultures, cells were resuspended at a concentration of 5 × 10^5 cells/mL in a growth medium containing […] of PHA (Irvine Scientific, Santa Ana, CA, USA). The same cellular density was utilized for resting PBMC cultures, without the addition of PHA. The tested compounds were added at different concentrations, and after a 72 h incubation, cell viability was determined using the resazurin test as described above.

Data set [6] concerns tubulin (colchicine site). Kind of data set: Inhibition of [3H]colchicine binding to tubulin. The note with it: tubulin 0.5 µM, [3H]colchicine 5 µM, tested compound 5 µM. Set-up: species or system bovine. The method, boiled down:
(§4)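 Assembly: 10 μM bovine brain tubulin preincubated with compound in 0.8 M monosodium glutamate pH 6.6 at 30 °C, chilled, GTP added, then warmed to 30 °C and followed turbidimetrically. Colchicine binding: 0.5 μM tubulin with 5 μM [3H]colchicine and 5 μM compound, DEAE-cellulose filter by gravity.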

In data set [7] the test system is HeLa cells. The data set can be described thus: In vitro growth inhibition (resazurin, 72 h), HeLa. The note with it: Homo sapiens, concentration inhibiting tumor cell proliferation by 50%, mean ± SE. It is filed as cell-based.
Data set [8] relates to A549 cells. The data set can be described thus: In vitro growth inhibition (resazurin, 72 h), A549. The note with it: Homo sapiens, mean ± SE. It is filed as cell-based.
For data set [9], the target named is T1, human recombinant HDAC6 (Homo sapiens, UniProt Q9UBN7).
T1 construct: purchased BPS Bioscience 50056
T1 sequence (Q9UBN7 1-1215): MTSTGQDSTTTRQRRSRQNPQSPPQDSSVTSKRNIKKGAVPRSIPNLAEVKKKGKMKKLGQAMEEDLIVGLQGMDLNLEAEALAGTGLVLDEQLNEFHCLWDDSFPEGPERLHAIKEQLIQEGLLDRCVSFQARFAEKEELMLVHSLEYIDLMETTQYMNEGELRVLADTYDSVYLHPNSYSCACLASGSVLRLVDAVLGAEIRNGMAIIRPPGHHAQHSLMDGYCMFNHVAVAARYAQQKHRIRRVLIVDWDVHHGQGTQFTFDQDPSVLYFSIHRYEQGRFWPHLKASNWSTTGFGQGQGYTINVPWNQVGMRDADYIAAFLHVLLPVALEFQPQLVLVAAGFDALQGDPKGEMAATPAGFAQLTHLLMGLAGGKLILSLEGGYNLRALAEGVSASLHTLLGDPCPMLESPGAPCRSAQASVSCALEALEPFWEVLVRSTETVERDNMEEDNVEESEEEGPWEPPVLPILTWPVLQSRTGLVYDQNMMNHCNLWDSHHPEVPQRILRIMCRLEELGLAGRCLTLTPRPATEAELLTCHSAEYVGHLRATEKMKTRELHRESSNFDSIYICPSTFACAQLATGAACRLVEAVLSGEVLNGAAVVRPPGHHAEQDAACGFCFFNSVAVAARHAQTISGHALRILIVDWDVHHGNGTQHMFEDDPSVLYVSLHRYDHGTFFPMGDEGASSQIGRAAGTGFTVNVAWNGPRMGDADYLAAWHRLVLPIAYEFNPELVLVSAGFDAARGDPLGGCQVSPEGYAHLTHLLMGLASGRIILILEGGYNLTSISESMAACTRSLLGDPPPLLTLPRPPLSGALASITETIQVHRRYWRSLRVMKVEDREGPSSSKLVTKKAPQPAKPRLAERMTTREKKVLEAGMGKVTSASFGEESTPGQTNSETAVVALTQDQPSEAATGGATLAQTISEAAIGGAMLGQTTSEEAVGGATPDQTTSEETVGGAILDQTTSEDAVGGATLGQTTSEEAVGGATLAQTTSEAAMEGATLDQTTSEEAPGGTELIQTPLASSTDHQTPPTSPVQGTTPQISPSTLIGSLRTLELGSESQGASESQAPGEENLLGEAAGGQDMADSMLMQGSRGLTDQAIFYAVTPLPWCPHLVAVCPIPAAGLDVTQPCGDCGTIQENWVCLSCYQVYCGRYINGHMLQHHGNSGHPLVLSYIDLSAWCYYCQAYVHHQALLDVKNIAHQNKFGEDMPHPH
Kind of data set: HDAC isoform inhibition, fluorogenic substrate, HDAC6. It is filed as biochemical. The note with it: mean ± SE, read-out: IC50 (µM) hHDAC6. As for the experimental part: Further experiments were also carried out to evaluate the inhibitory activities of test compounds on selected HDAC isoforms. […] Following an incubation of 15 min at RT, fluorescence was measured in an EnSight multimodal plate reader (PerkinElmer, Boston, MA, USA) with an excitation wavelength of 360 nm and an emission wavelength of 450 nm.

The subject of data set [10] is bovine brain tubulin. The data set can be described thus: Inhibition of tubulin polymerization (turbidimetric). It counts as biochemical. The note with it: tubulin at 10 μM; 20 min incubation at 30 °C; read-out: Tubulin Assembly IC50 ± SD. The method, boiled down:
as §4

The subject of data set [11] is MDA-MB-231 cells. Kind of data set: In vitro growth inhibition (resazurin, 72 h), MDA-MB-231. It counts as cell-based. The note with it: Homo sapiens, mean ± SE.
Data set [12] deals with HT-29 cells. The data set can be described thus: In vitro growth inhibition (resazurin, 72 h), HT-29. It is filed as cell-based. The note with it: Homo sapiens, mean ± SE.
Data set [13] has as its system human peripheral blood mononuclear cells (PBMC) stimulated with PHA. Kind of data set: Cytotoxicity in PHA-stimulated PBMC (resazurin, 72 h). The note with it: mean ± SEM. It counts as cell-based.
Description: as §2, §3

In data set [14] the test system is acetylated histone H3 (Ac-H3K9) in HT-29 cells. The data set can be described thus: Western blot of acetylated histone H3 (Ac-H3K9) in HT-29 cells. It is filed as cell-based, human. The note with it: 10 µM, 6 h. The method, then:
HT-29 cells were treated with selected compounds for 6 h at 10 µM, lysed, and then processed as previously described.
Antibodies directed against total histone H3 and its acetylated form (Ac-H3K9) were purchased from Cell Signaling Technology, Danvers, Massachusetts, while anti-vinculin antibody was purchased from Santa Cruz Biotechnology. Membranes were visualized using ECL select (GE Healthcare), and images were acquired using the iBright FL1500 Imaging System (Thermo Fisher Scientific, Waltham, MA, USA). Anti-vinculin (1:25,000, Santa Cruz Biotechnology, Dallas, TX, USA) was used as loading controls.
Background: Immunoblotting shows a protein as a band on a membrane.

As to `COc1cc2oc(C(=O)c3ccccc3)c(C)c2cc1/C=C/C(=O)NO` [Compound 6g, (E)-3-(2-Benzoyl-6-methoxy-3-methylbenzofuran-5-yl)-N-hydroxyacrylamide], the “cytotoxic effect (annexin V/PI), in words” value in [1] is “greatest cytotoxic effects at the lower dose tested”. Further, the “Percentage of HT-29 cells in G1 phase” value in data set [2] was 34.91%. Moreover, the “Percentage of HT-29 cells in G2/M phase” value in data set [2] worked out at 40.74%. In addition, the “Percentage of HT-29 cells in S phase” value in data set [2] is reported as 24.35%. For the same compound, the “induction of apoptosis / cell death (annexin V/PI), in words” value (shortened to “induction of apoptosis / cell death”) in data set [3] is “able to induce cell apoptosis”. In addition, the IC50 in [4] is 30 ± 0.7 nM; in data set [7] it was 0.36 ± 0.01 nM; in data set [8], 36.7 ± 0.91 nM; in [9], 10.2 ± 0.7 µM; in [10], 690 ± 100 nM; in [11] it was 23.9 ± 0.77 nM. For the same compound, in [12], the IC50 came to 80.3 ± 1.31 nM. Besides, the GI50 was greater than 10 µM in data set [5] and 0.15 ± 0.02 µM in data set [13]. Further, the “Colchicine Binding % Inhibition ± SD” value in data set [6] was determined as 86 ± 5%.
In the case of `COc1ccc(/C=C\c2cc(OC)c(OC)c(OC)c2)cc1O` [CA-4, combretastatin A-4, reference compound], the “cytotoxic effect (annexin V/PI), in words” value in [1] is “greatest cytotoxic effects at the lower dose tested”. For the same compound, in data set [2], the “Percentage of HT-29 cells in G1 phase” value is on record as 41.83%, the “Percentage of HT-29 cells in G2/M phase” value is recorded as 27.38% and the “Percentage of HT-29 cells in S phase” value is on record as 30.79%. Also, the “induction of apoptosis / cell death” value in data set [3] is on record as “completely resistant”. The “Colchicine Binding % Inhibition ± SD” value in data set [6] is reported as 98 ± 2%. In addition, inhibition in data set [7] was half-maximal at 4.6 ± 0.1 nM (IC50). Also, in data set [10], the IC50 is […]. Besides, in data set [11], half-maximal inhibition (IC50) was put at […].
On to `COc1cc2oc(C(=O)c3ccccc3OC)c(C)c2cc1/C=C/C(=O)NO` [Compound 6f, (E)-N-Hydroxy-3-(6-methoxy-2-(2-methoxybenzoyl)-3-methylbenzofuran-5-yl)acrylamide], for which the “Percentage of HT-29 cells in G1 phase” value in data set [2] turned out to be 6.12%. In addition, in data set [2], the “Percentage of HT-29 cells in G2/M phase” value was found to be 87.54%. Moreover, the “Percentage of HT-29 cells in S phase” value in data set [2] is given as 6.34%. For the same compound, the “acetylated histone H3 (Ac-H3K9) level, Western blot” value in data set [14] was “significantly increased acetylated histone H3 (Ac-H3K9)”. Also, the “induction of apoptosis / cell death” value in data set [3] is “able to induce cell apoptosis”. Moreover, the IC50 in data set [4] was determined as 24 ± 8 nM; in data set [7], 3.9 ± 0.01 nM; in data set [8], 168 ± 5.31 nM; in data set [9], 6.12 ± 0.41 µM; in data set [10], 1200 ± 100 nM; in data set [11], 41.9 ± 2.33 nM. In [12], this compound returned an IC50 of 75.3 ± 3.09 nM. Further, the GI50 in data set [5] was greater than 10 µM; in [13] it was 0.51 ± 0.1 µM. The “Colchicine Binding % Inhibition ± SD” value in [6] stood at 76 ± 2%.
Regarding `COc1cc2oc(C(=O)c3cc(OC)c(OC)c(OC)c3)cc2cc1/C=C/C(=O)NO` [Compound 6i, (E)-N-Hydroxy-3-(6-methoxy-2-(3,4,5-trimethoxybenzoyl)benzofuran-5-yl)acrylamide], the “Percentage of HT-29 cells in G1 phase” value in data set [2] worked out at 4.13%. Further, the “Percentage of HT-29 cells in G2/M phase” value in [2] was found to be 91.07%. Besides, the “Percentage of HT-29 cells in S phase” value in data set [2] turned out to be 4.79%. The “acetylated histone H3 (Ac-H3K9) level, Western blot” value in [14] is recorded as “significantly increased acetylated histone H3 (Ac-H3K9)”. In addition, in [3], the “induction of apoptosis / cell death” value is reported as “able to induce cell apoptosis”. Besides, the IC50 was determined as 69 ± 6 nM in [4]; 14.8 ± 0.32 nM in [7]; 304 ± 1.46 nM in data set [8]; 5.16 ± 0.34 µM in [9]; 1600 ± 300 nM in data set [10]; 93.7 ± 2.04 nM in data set [11]. The same compound showed an IC50 in [12] of 272 ± 2.03 nM. For the same compound, the GI50 is greater than 10 µM in [5] and 2.32 ± 0.23 µM in [13]. In data set [6], the “Colchicine Binding % Inhibition ± SD” value was found to be 43 ± 4%.

One may read the IC50 as the concentration that inhibits the measured activity by half. As usually defined, the GI50 is the concentration giving 50% growth inhibition. Higher therefore signals less potent growth inhibition.
